Test results published in the supplement of paper PMC11451515.

Test system: NOMO1
Assay: cell viability relative to DMSO control; higher = less cytotoxic
Conditions: 48 h
Method in brief: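 Three leukemia lines were tested: NOMO1 and SEM at 500 cells/well and P12-Ichikawa at 1000 cells/well. Each was adapted for at least four passages in each medium and seeded in 5 μl in 1536-well plates, and library compounds in DMSO were pin-dosed from 47 μM to 0.79 nM in 11 threefold steps. After 48 h at 37°C, CellTiter-Glo One luminescence was read. Viability is a percentage relative to DMSO wells on each plate, with cell-free wells as background.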

[1] = HPLM + 10% dialyzed FBS, 0.000781 µM
[2] = HPLM + 10% dialyzed FBS, 0.00234 µM
[3] = HPLM + 10% dialyzed FBS, 0.00702 µM
[4] = HPLM + 10% dialyzed FBS, 0.0211 µM
[5] = HPLM + 10% dialyzed FBS, 0.0632 µM
[6] = HPLM + 10% dialyzed FBS, 0.19 µM
[7] = HPLM + 10% dialyzed FBS, 0.569 µM
[8] = HPLM + 10% dialyzed FBS, 1.71 µM
[9] = HPLM + 10% dialyzed FBS, 5.12 µM
[10] = HPLM + 10% dialyzed FBS, 15.4 µM
[11] = HPLM + 10% dialyzed FBS, 46.1 µM
[12] = RPMI 5 mM glucose + 10% FBS, 0.000781 µM
[13] = RPMI 5 mM glucose + 10% FBS, 0.00234 µM
[14] = RPMI 5 mM glucose + 10% FBS, 0.00702 µM
[15] = RPMI 5 mM glucose + 10% FBS, 0.0211 µM
[16] = RPMI 5 mM glucose + 10% FBS, 0.0632 µM
[17] = RPMI 5 mM glucose + 10% FBS, 0.19 µM
[18] = RPMI 5 mM glucose + 10% FBS, 0.569 µM
[19] = RPMI 5 mM glucose + 10% FBS, 1.71 µM
[20] = RPMI 5 mM glucose + 10% FBS, 5.12 µM
[21] = RPMI 5 mM glucose + 10% FBS, 15.4 µM
[22] = RPMI 5 mM glucose + 10% FBS, 46.1 µM
[23] = RPMI 5 mM glucose + 10% dialyzed FBS, 0.000781 µM
[24] = RPMI 5 mM glucose + 10% dialyzed FBS, 0.00234 µM
[25] = RPMI 5 mM glucose + 10% dialyzed FBS, 0.00702 µM
[26] = RPMI 5 mM glucose + 10% dialyzed FBS, 0.0211 µM
[27] = RPMI 5 mM glucose + 10% dialyzed FBS, 0.0632 µM
[28] = RPMI 5 mM glucose + 10% dialyzed FBS, 0.19 µM
[29] = RPMI 5 mM glucose + 10% dialyzed FBS, 0.569 µM
[30] = RPMI 5 mM glucose + 10% dialyzed FBS, 1.71 µM
[31] = RPMI 5 mM glucose + 10% dialyzed FBS, 5.12 µM
[32] = RPMI 5 mM glucose + 10% dialyzed FBS, 15.4 µM
[33] = RPMI 5 mM glucose + 10% dialyzed FBS, 46.1 µM

| Structure (SMILES) | cell viability [1] | cell viability [2] | cell viability [3] | cell viability [4] | cell viability [5] | cell viability [6] | cell viability [7] | cell viability [8] | cell viability [9] | cell viability [10] | cell viability [11] | cell viability [12] | cell viability [13] | cell viability [14] | cell viability [15] | cell viability [16] | cell viability [17] | cell viability [18] | cell viability [19] | cell viability [20] | cell viability [21] | cell viability [22] | cell viability [23] | cell viability [24] | cell viability [25] | cell viability [26] | cell viability [27] | cell viability [28] | cell viability [29] | cell viability [30] | cell viability [31] | cell viability [32] | cell viability [33] |
| --- | --- | --- | --- | --- | --- | --- | --- | --- | --- | --- | --- | --- | --- | --- | --- | --- | --- | --- | --- | --- | --- | --- | --- | --- | --- | --- | --- | --- | --- | --- | --- | --- | --- |
| Cn1c(CNc2ccc(C(=N)N)cc2)nc2cc(C(=O)N(CCC(=O)O)c3ccccn3)ccc21 | 109% | 106% | 103% | 109% | 103% | 95.5% | 116% | 119% | 125% | 124% | 111% | 92% | 92.8% | 94.6% | 95.5% | 99.3% | 98.7% | 97.7% | 109% | 97.3% | 103% | 111% | 94.5% | 91.3% | 95.9% | 93.8% | 113% | 99.6% | 94% | 104% | 96% | 110% | 116% |
| O=C1c2c(O)ccc(O)c2C(=O)c2c(NCCNCCO)ccc(NCCNCCO)c21 | 95% | 113% | 127% | 131% | 120% | 124% | 29.3% | 92.4% | 27.3% | 24.3% | 5.26% | 102% | 102% | 107% | 108% | 100% | 105% | 18.5% | 110% | 18.2% | 17.2% | 4.37% | 107% | 113% | 108% | 113% | 112% | 103% | 53.2% | 107% | 20.3% | 27.1% | 3.81% |
| Nc1nc(N)c2nc(CNc3ccc(C(=O)NC(CCC(=O)O)C(=O)O)cc3)cnc2n1 (stereo not given) | 105% | 123% | 118% | 112% | 97.5% | 70.4% | 49.8% | 57.1% | 57.4% | 61.4% | 65.2% | 97.1% | 95.9% | 103% | 102% | 92.9% | 118% | 103% | 106% | 112% | 133% | 117% | 119% | 117% | 118% | 131% | 72.7% | 42.9% | 38.3% | 45% | 46% | 38.9% | 40.1% |
| C/C=C(/C)C(=O)O[C@H]1C(C)=C[C@]23C(=O)[C@@H](C=C(CO)[C@@H](O)[C@]12O)[C@H]1[C@@H](C[C@H]3C)C1(C)C | 119% | 127% | 114% | 112% | 93.5% | 69% | 66.4% | 64.7% | 60.6% | 61.5% | 39.3% | 121% | 128% | 121% | 108% | 96% | 79.1% | 67.8% | 65.9% | 66.3% | 69.4% | 51.7% | – | – | – | – | – | – | – | – | – | – | – |
| CC(N)C12CC3CC(CC(C3)C1)C2 (stereo not given) | 99.4% | 120% | 116% | 113% | 117% | 104% | 126% | 109% | 104% | 85.1% | 80.2% | 104% | 118% | 122% | 111% | 108% | 116% | 126% | 112% | 112% | 53.4% | 49.2% | – | – | – | – | – | – | – | – | – | – | – |
| CC(C)C(=O)Nc1ccc([N+](=O)[O-])c(C(F)(F)F)c1 | 118% | 120% | 118% | 128% | 140% | 137% | 44% | 39.3% | 39% | 42.3% | 41.3% | – | – | – | – | – | – | – | – | – | – | – | – | – | – | – | – | – | – | – | – | – | – |
| C#C[C@]1(O)CC[C@H]2[C@@H]3CCc4cc(O)ccc4[C@H]3CC[C@@]21C | 101% | 116% | 104% | 104% | 102% | 105% | 109% | 96% | 97.9% | 68% | 51.3% | 97.7% | 93.9% | 99.9% | 95.9% | 105% | 91.9% | 87% | 91.5% | 89% | 85% | 80.4% | 97.2% | 103% | 87.4% | 101% | 99.4% | 106% | 92.4% | 78.3% | 89.1% | 71.3% | 48.4% |
| O=C(c1ccc(Nc2nccc(-c3cc4ccccc4s3)n2)cc1)N1CCC(N2CCCC2)CC1 | 122% | 132% | 125% | 125% | 124% | 114% | 105% | 95.3% | 104% | 41.8% | 1.51% | 113% | 126% | 107% | 110% | 106% | 119% | 118% | 101% | 96.2% | 91.3% | 2.67% | 122% | 129% | 115% | 114% | 124% | 106% | 120% | 121% | 95% | 80.2% | 2.88% |
